The values below come from PMC5594493, “Antiproliferative factor (APF) binds specifically to sites within the cytoskeleton-associated protein 4 (CKAP4) extracellular domain” (BMC Biochemistry, 2017).

Test [1] concerns full-length CKAP4. Description: SPR binding to full-length His-tagged CKAP4. Here is the method:
FL-CKAP4 was expressed in HEK 293 T cells (ATCC) and similarly purified by IMAC. Briefly, HEK 293 T cells were transfected with pcDNA3.1/V5-His TOPO vector (Life Technologies) expressing FL-CKAP4 using X-tremeGENE 9 transfection reagent (Roche) according to manufacturer’s protocol. Cells were harvested after transient expression (24 h) and held at −80 °C before proceeding to purification. Cell lysate was prepared in PBS buffer containing 10 mM CHAPS, 20 mM imidazole and EDTA-free protease inhibitor cocktail and sonicated before proceeding to protein purification, as described above. All purified proteins were quantitated by the BCA method according to the manufacturer’s protocol using BSA as the standard (ThermoScientific). Because of the varied amino acid compositions of the purified recombinant proteins, the UV (λ280nm) absorbance method was also used for reference.
All SPR experiments were performed on a Biacore X-100 instrument (GE Healthcare) with the chip surface at 25 °C using PBS containing 0.01% Tween-20 as running buffer. CKAP4 recombinant proteins were immobilized individually either by Ni^2+/nitrilotriacetic acid (NTA) chelation on Sensor Chip NTA or by amine-coupling on Sensor Chip CM5, on the Fc2 channel. […] The data were analyzed using Biacore Evaluation software V2.0. […]

Test [2] concerns cell proliferation. The following applies: cited from earlier work. As to the method: Cells were treated with 20 nM APF or as-APF for 96 h and the rate of cell growth was measured using the XTT proliferation assay. […] The rate of growth of T24 cells was reduced by 47% with APF and by 60% with as-APF, relative to cells treated with vehicle alone; moreover, the difference in the antiproliferative effect of as-APF and APF was de ...

For “Neu5Acα2 − 3Galβ1 − 3GalNAcα-O-TVPAAVVVA [APF]”, the binding entry in test [1] (CKAP4FL immobilized via His-tag on NTA chip) was “did not generate sufficient binding”. Moreover, in test [1] (full-length His-tagged CKAP4 purified from mammalian cells), the binding activity entry is “did not detect appreciable binding activity”. The “relative antiproliferative effect of as-APF and APF” value in test [2] (ref [2]) is “more or less equipotent”. In addition, the IC50 in test [2] (ref [3], read-out: IC50, inhibition of proliferation) was approximately 1 nM.
